The values below come from patent publication US8697888B2, “Substituted (1-(methylsulfonyl)azetidin-3-yl)(heterocycloalkyl)methanone analogs as antagonists of muscarinic acetylcholine M1 receptors” (Vanderbilt University, priority 2012, dated 2014).

Like-named read-outs stand apart in the source and are kept apart here.

For the experiment, the target named is T1, mAChR M1 (UniProt P11229).
T1 sequence (P11229 1-460): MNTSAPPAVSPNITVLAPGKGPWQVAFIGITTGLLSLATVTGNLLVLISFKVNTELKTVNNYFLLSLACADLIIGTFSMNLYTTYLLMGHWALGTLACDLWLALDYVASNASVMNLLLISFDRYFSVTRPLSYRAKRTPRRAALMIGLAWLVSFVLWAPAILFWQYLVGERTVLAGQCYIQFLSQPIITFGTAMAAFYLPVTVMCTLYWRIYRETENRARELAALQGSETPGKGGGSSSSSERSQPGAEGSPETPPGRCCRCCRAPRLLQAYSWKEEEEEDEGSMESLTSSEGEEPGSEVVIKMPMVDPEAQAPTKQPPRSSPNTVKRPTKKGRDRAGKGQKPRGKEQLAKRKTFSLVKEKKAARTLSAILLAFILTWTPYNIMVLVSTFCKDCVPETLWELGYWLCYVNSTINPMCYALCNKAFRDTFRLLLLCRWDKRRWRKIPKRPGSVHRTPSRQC
Description: mAChR M1 cell-based functional assay (calcium mobilization, antagonist mode).

Setting [1] is: activity remaining at top dose of 30 μM test compound, as percentage of the response to an approx. EC80 concentration of ACh.
The mark [2] stands for this setting: concentration of antagonist decreasing calcium flux by 50%; EC80 acetylcholine response; CHO-K1 cells expressing mAChR M1; read-out: Potency (IC50).
The mark [3] stands for this setting: dash = baseline or about zero remaining activity (table footnote).

Take `O=C(C1CN(S(=O)(=O)c2ccc3ccccc3c2)C1)N1CCN(c2ccncc2)CC1` [B77]: the “Remaining Activity (%)” value under setting [1] was “≧80%”. Also, under setting [2], the IC50 was above 10 µM.

For the molecule `O=C(C1CN(S(=O)(=O)c2cccnc2Cl)C1)N1CCN(c2ccncc2)CC1` [B21], the IC50 under setting [2] came out at 0.86 µM. Moreover, the “Remaining Activity (%)” value under setting [3] is listed as “— (Unless otherwise indicated with a numerical value, the percent remaining activity is baseline or about zero, i.e. as indicated by “—”)”.

On to `Cc1nc(C(F)(F)F)c(S(=O)(=O)N2CC(C(=O)N3CCN(c4ccncc4)CC3)C2)s1` [B27], for which, under setting [2], the IC50 was determined as 2 µM. Also, the “Remaining Activity (%)” value under setting [3] is “— (Unless otherwise indicated with a numerical value, the percent remaining activity is baseline or about zero, i.e. as indicated by “—”)”.

For `O=C(C1CN(S(=O)(=O)c2cccc(OC(F)F)c2)C1)N1CCN(c2ccncc2)CC1` [B68], the “Remaining Activity (%)” value under setting [1] was “≧80%”. Also, the IC50 under setting [2] was above 10 µM.

`CC(C)S(=O)(=O)N1CC(C(=O)N2CC3CN(c4ccncc4)CC3C2)C1` (centres unmarked) [B84]: the “Remaining Activity (%)” value under setting [1] is listed as “≧80%”. In addition, under setting [2], the IC50 is above 10 µM.

Take `CC(C)(C)CS(=O)(=O)N1CC(C(=O)N2CC3CN(c4ccncc4)CC3C2)C1` (centres unmarked) [B55]: the “Remaining Activity (%)” value under setting [1] was 56%. For the same molecule, the IC50 (read-out: Potency (IC50); concentration of antagonist decreasing calcium flux by 50%; EC80 acetylcholine response; CHO-K1 cells expressing mAChR M1) is above 10 µM.

`O=C(C1CN(S(=O)(=O)c2cnc3ccccc3c2)C1)N1CCN(c2ccncc2)CC1` [B39]: under setting [1], the “Remaining Activity (%)” value is recorded as 48%. Besides, the IC50 under setting [2] is above 10 µM.
